The nature of one data set: Stock solution stability. It counts as physicochemical. The following applies: under the experimental conditions.
Data set [1] can be described thus: Stability of QC samples in beagle plasma. It counts as in vitro ADME. The following applies: under the experimental conditions (room temperature, autosampler, freeze-thaw, −20°C).
For data set [2] the following is noted: cats; cited from earlier work.
The conditions of data set [3]: liver; cited from earlier work.
Data set [4] can be described thus: Pharmacokinetic study in beagles after intramuscular injection of parecoxib. To be noted: beagle, dog, plasma, im, 1.33 mg/kg, after intramuscular injection of 1.33 mg/kg parecoxib, n=6, mean ± SD.

The term Tmax denotes the time at which the peak concentration occurs. As usually defined, the half-life is how long it takes for the measured level to halve. Higher therefore signals slow decline.

Consider `Cc1ccc(-c2cc(C(F)(F)F)nn2-c2ccc(S(N)(=O)=O)cc2)cc1` [IS, Celecoxib], for which, in “Stock solution stability”, the “Stock solution stability (in words)” value was “stabilized”.
Consider `CCC(=O)NS(=O)(=O)c1ccc(-c2c(-c3ccccc3)noc2C)cc1` [Parecoxib], for which the “Stability in beagle plasma (in words)” value in data set [1] is “stable”. In the data set “Stock solution stability”, the “Stock solution stability (in words)” value is “stabilized”. Besides, the “t1/2 of conversion to valdecoxib and propionic acid” value in data set [2] is “about 24 mins”.
In the case of `Cc1onc(-c2ccccc2)c1-c1ccc(S(N)(=O)=O)cc1` [Valdecoxib], in data set [1], the “Stability in beagle plasma (in words)” value is listed as “stable”. Moreover, the “Stock solution stability (in words)” value in “Stock solution stability” is listed as “stabilized”. In addition, the “Share of elimination by sulfonamide glucose hydroformylation” value in data set [3] is “about 20%”. Moreover, in data set [4] (Tmax, beagle plasma), the Tmax is around 1.36 h. This molecule had a half-life in data set [4] (t1/2, beagle plasma) of around 2.27 h.

(Values after publication PMC7078782 (Drug Design, Development and Therapy, 2020).)
